The results in this text go back to PubChem BioAssay (NCI).

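Cells were grown in 96-well plates and exposed to each compound for 48 hours at five concentrations; endpoints were interpolated linearly between bracketing concentrations, or set to the highest concentration if not reached. TGI denotes the concentration required for complete inhibition of growth.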 Where a SMILES comes first, the peptide text is derived from it. The star is where a group is joined. Boc = CC(C)(C)OC(=O)*; OBn = c1ccc(CO*)cc1; Bn = c1ccc(C*)cc1

Common to all, as to experiment: NCI-60 cell line screen, 48 h
Test [1] deals with HS 578T breast.
The subject of test [2] is BT-549 breast.
Test [3] deals with SF-539 CNS.
For test [4], the system named is MCF7 breast.
Test [5] concerns NCI-H522 lung.
Test [6] concerns T-47D breast.

For the compound `CCOC(=O)Cn1c(=O)c2cc(C)cc3c(Cl)nc4c(OC)c(OC)cc1c4c32`, the TGI in test [1] is 74.7 µM; in test [2], over 100 µM; in test [3] it was over 100 µM; in test [4], over 100 µM; in test [5], over 100 µM.
In the case of `Nc1c(Cl)ncnc1NCC1(CO)CCC1`, the TGI in test [1], in test [2], in test [3], in test [4] and in test [5] was over 100 µM each time.
`O=c1[nH]/c(=C/c2cccs2)c(=O)[nH]/c1=C/c1ccc(OCc2ccccc2)cn1`: the TGI in test [1] was determined as 0.204 µM; in test [2], 3.75 µM; in test [3] it was 12.5 µM; in test [4], 39.6 µM; in test [5] it was 0.0998 µM.
In the case of `C=CCCCN1C(=O)C2C3c4ccccc4C(C=O)(c4ccccc43)C2C1=O` (stereo not given), the TGI in test [4] is 28.5 µM; in test [5] it was 25.7 µM; in test [6] it was over 100 µM.
For the compound `CS(=O)(=O)c1nc(-c2cc3c(c(S(C)(=O)=O)n2)CCC3)cc2c1CCC2`, the TGI in test [2], in test [3] and in test [5] was over 100 µM in each case.
Turning to `Cc1ccc(N=c2oc3c(ccc4ccccc43)nc2Nc2ccc(C)cc2)cc1`, the TGI in test [1], in test [3], in test [5] and in test [6] was over 100 µM in each case.
As for `CCCCOP(=O)(OCCCC)C(NS(=O)(=O)c1ccccc1)(C(=O)OCC)C(F)(F)F` (stereo not given), the TGI in test [1] is over 100 µM; in test [3] it was 38.3 µM; in test [4], 76.1 µM; in test [6], over 100 µM.
As to `COC(CO[Si](C)(C)N[Si](C)(C)OCC(OC)c1ccccc1)c1ccccc1` (stereo not given), the TGI in test [2], in test [4] and in test [6] was over 100 µM throughout.
With `CC(=O)Nc1ccc(S(=O)(=O)/N=c2/sc(S(N)(=O)=O)nn2C)cc1`, the TGI in test [2], in test [3] and in test [5] was over 100 µM throughout.
As to `CSc1nc(NC2CC2)c2c(n1)Sc1nc3ccccc3n1N=C2`, the TGI in test [1] was 24.2 µM; in test [2] it was over 100 µM; in test [3], 27.4 µM; in test [4], 96.2 µM; in test [5], over 100 µM.
As to `CC(C)CC(NC(=O)C(CCC(=O)OCc1ccccc1)NC(=O)OC(C)(C)C)C(=O)NC(COCc1ccccc1)C(=O)NC(Cc1ccccc1)C(=O)O` (stereo not given) (Boc-E(OBn)LS(Bn)F-OH; configuration not given here), the TGI in test [1], in test [2] and in test [4] was over 100 µM each time.
For `COC(=O)[C@@]12CC3CN(Cc4c1[nH]c1ccccc41)C2CC3=O`, the TGI in test [2], in test [3], in test [4], in test [5] and in test [6] was over 100 µM each time.
`COc1cc(C(C)(C)C)c(OC(=O)/C=C/C(=O)O/C=C/[N+](=O)[O-])c(C(C)(C)C)c1`: the TGI in test [1] was 63.9 µM; in test [3], over 100 µM; in test [4] it was 40.4 µM; in test [5] it was 85.7 µM; in test [6], over 100 µM.
Turning to `CCCc1c(OC)c(O)c2c(=O)cc(OC)c3c4c(OC)cc(=O)c5c(O)c(OC)c(CCC)c(c1c23)c54`, the TGI in test [2] was 19.8 µM; in test [3], 34.7 µM; in test [4] it was 26.5 µM; in test [5], 9.53 µM.
For the compound `O=c1[nH]c(=O)n(COCCO)cc1-c1ccccc1`, the TGI in test [1], in test [4], in test [5] and in test [6] was over 100 µM throughout.
With `CCNc1nc2ccccc2nc1NCC`, the TGI in test [1], in test [2], in test [3], in test [4] and in test [5] was over 100 µM in each case.
As to `O=C(O)c1cc(/C=C/c2ccc(O)c(O)c2)ccc1O`, the TGI in test [1] was over 100 µM; in test [3], over 100 µM; in test [4], 51.4 µM; in test [5] it was over 100 µM; in test [6], over 100 µM.
For `O=C(O)C(C1NCCS1)N1Cc2ccccc2C1` (stereo not given), the TGI in test [2], in test [3], in test [4] and in test [6] was over 100 µM each time.
In the case of `CS(=O)(=O)c1ccc(C2=C(c3ccccc3)C(=O)OC2)cc1`, the TGI in test [1], in test [3], in test [4], in test [5] and in test [6] was over 100 µM in each case.
In the case of `O=C(CSCC(=O)N/N=C/c1ccc(F)cc1)N/N=C/c1ccc(F)cc1`, the TGI in test [1], in test [3], in test [4], in test [5] and in test [6] was over 100 µM in each case.
